Like-named read-outs stand apart in the source and are kept apart here. Where a SMILES comes first, the peptide text is derived from it. [ ]: non-standard residue; d: D form. Arg(Me) = CNC(=N)NCCC[C@H](N)C(=O)O; Hyp = O=C(O)[C@@H]1C[C@@H](O)CN1; azaGly = NNC(=O)O
Test: Single dose PK, phase 1, healthy European men
Type: in vivo, human
Conditions: for Tmax / half-life / CL/F / AUC(0-inf) / AUC(0-t) / Cmax / Vd/F / CL renal / dose excreted: male, human; for Tmax / half-life / CL/F / AUC(0-inf) / AUC(0-t) / Cmax / Vd/F: plasma; for Vd/F: read-out: Vz/F; for CL renal: urine and plasma, read-out: CLr (renal clearance) (converted); for dose excreted: urine
Description: The study was conducted in France.
Eighty-two healthy European male subjects aged 50 to 76 years were enrolled into nine cohorts. 81/82 subjects (98.8%) were white and 1/82 subject (1.2%) was black/African American. Subjects enrolled in the first six cohorts received 0.001, 0.003, 0.01, 0.03, 0.1, or 0.3 mg of API-MA or placebo by single SC bolus. In the 0.3 mg cohort, 6 subjects received API-MA and two received placebo. In the remaining cohorts, 7 subjects received API-MA and three received placebo. Subjects enrolled in the seventh, eighth, and ninth cohorts received 1, 3, or 6 mg of API-MA or placebo by single 2-hour SC infusion. In these cohorts, 6 subjects received API-MA and two received placebo.
To measure urinary excretion of API-MA, urine specimens were collected at the following nominal times: from 12 hours prior to dosing until dosing and 0 to 6, 6 to 12, 12 to 24, 24 to 48 and 48 to 72 hours postdose.
To measure urinary excretion of API-MA, urine specimens were collected at the following nominal times: from 12 hours prior to dosing until dosing and 0 to 6, 6 to 12, 12 to 24, 24 to 48, and 48 to 72 hours after the start of the infusion.

[1] = single SC 0.001 mg, geometric mean
[2] = single SC 0.003 mg, geometric mean
[3] = single SC 0.01 mg, geometric mean
[4] = single SC 0.03 mg, geometric mean
[5] = single SC 0.1 mg, geometric mean
[6] = single SC 0.3 mg, geometric mean
[7] = subcutaneous, 2-hour INF 1 mg, geometric mean
[8] = subcutaneous, 2-hour INF 3 mg, geometric mean
[9] = subcutaneous, 2-hour INF 6 mg, geometric mean
[10] = single SC 0.001 mg, only 1 subject above LLOQ

For CC(=O)O.CNC(=N)NCCC[C@H](NC(=O)[C@H](CC(C)C)NC(=O)NNC(=O)[C@H](Cc1ccccc1)NC(=O)[C@@H](NC(=O)[C@H](CC(N)=O)NC(=O)[C@@H]1C[C@@H](O)CN1C(=O)[C@@H](Cc1ccc(O)cc1)NC(C)=O)[C@@H](C)O)C(=O)N[C@@H](Cc1c[nH]c2ccccc12)C(N)=O [API-MA, 2-(N-Acetyl-D-tyrosyl-trans-4-hydroxy-L-prolyl-Lasparaginyl-L-threonyl-L-phenylalanyl)-hydrazinocarbonyl-L-leucyl-Nω-methyl-L-arginyl-L-tryptophanamide monoacetate] (Ac-[dY][Hyp]NTF[azaGly]L[Arg(Me)]W-NH2), the “Ae(0-t) (urine)” value (2-hour INF 1 mg, geometric mean (% CV)) was 29971.789 (27.97) ng, the “Ae(0-t) (urine)” value (2-hour INF 3 mg, geometric mean (% CV)) was 118170.544 (41.46) ng and the “Ae(0-t) (urine)” value (2-hour INF 6 mg, geometric mean (% CV)) was 322822.342 (10.34) ng. The Tmax (SC bolus, read-out: Median Tmax, range over cohorts) was 0.5 to 0.75 h, the half-life (sc, 0.001 mg, single SC 0.001 mg, read-out: T½ (median) (converted)) was 1.8 h and the half-life (sc, 0.003 mg, single SC 0.003 mg, read-out: T½ (median) (converted)) was 1.43 h. The half-life (sc, 0.01 mg, single SC 0.01 mg, read-out: T½ (median) (converted)) was 2.17 h, the half-life (sc, 0.03 mg, single SC 0.03 mg, read-out: T½ (median) (converted)) was 2.61 h and the half-life (sc, 0.1 mg, single SC 0.1 mg, read-out: T½ (median) (converted)) was 3.08 h. For the same compound, the half-life (sc, 0.3 mg, single SC 0.3 mg, read-out: T½ (median) (converted)) was 3.45 h, the CL/F (sc, 2-hour INF 1 mg, geometric mean) was 380 mL/min and the CL/F (sc, 2-hour INF 3 mg, geometric mean) was 353 mL/min. It also gave a CL/F (sc, 2-hour INF 6 mg, geometric mean) of 315 mL/min, an AUC(0-inf) [1] of 0.0475 ng·h/mL and an AUC(0-t) [1] of 0.0267 ng·h/mL. For the same compound, the CL/F [1] was 351 mL/min, the Cmax [1] was 0.0133 ng/mL and the Vd/F [1] was 63.9 L. For the same compound, the Tmax (single SC 0.001 mg, read-out: Tmax (median)) was 0.5 h, the AUC(0-inf) [2] was 0.122 ng·h/mL and the AUC(0-t) [2] was 0.101 ng·h/mL. The CL/F [2] was 409 mL/min, the Cmax [2] was 0.0424 ng/mL and the Vd/F [2] was 55.9 L. For the same compound, the Tmax (single SC 0.003 mg, read-out: Tmax (median)) was 0.75 h, the AUC(0-inf) [3] was 0.371 ng·h/mL and the AUC(0-t) [3] was 0.345 ng·h/mL. For the same compound, the CL/F [3] was 449 mL/min, the Cmax [3] was 0.14 ng/mL and the Vd/F [3] was 85.6 L. For the same compound, the Tmax (single SC 0.01 mg, read-out: Tmax (median)) was 0.5 h, the AUC(0-inf) [4] was 1.11 ng·h/mL and the AUC(0-t) [4] was 1.07 ng·h/mL. It also gave a CL/F [4] of 451 mL/min, a Cmax [4] of 0.34 ng/mL and a Vd/F [4] of 96 L. The Tmax (single SC 0.03 mg, read-out: Tmax (median)) was 0.5 h, the AUC(0-inf) [5] was 3.94 ng·h/mL and the AUC(0-t) [5] was 3.89 ng·h/mL. The CL/F [5] was 423 mL/min, the Cmax [5] was 1.38 ng/mL and the Vd/F [5] was 108 L. For the same compound, the Tmax (single SC 0.1 mg, read-out: Tmax (median)) was 0.5 h, the AUC(0-inf) [6] was 13.2 ng·h/mL and the AUC(0-t) [6] was 13.2 ng·h/mL. The CL/F [6] was 378 mL/min, the Cmax [6] was 4.35 ng/mL and the Vd/F [6] was 114 L. The Tmax (single SC 0.3 mg, read-out: Tmax (median)) was 0.625 h, the half-life (subcutaneous, 1 mg, 2-hour INF 1 mg, read-out: T1/2 (median) (converted)) was 3.64 h and the half-life (subcutaneous, 3 mg, 2-hour INF 3 mg, read-out: T1/2 (median) (converted)) was 5.25 h. The half-life (subcutaneous, 6 mg, 2-hour INF 6 mg, read-out: T1/2 (median) (converted)) was 5.26 h, the half-life (subcutaneous, 6 mg, 3 and 6 mg, read-out: Mean T1/2 at the highest doses (converted)) was about 5.2 h and the AUC(0-inf) [7] was 43.8 ng·h/mL. For the same compound, the AUC(0-t) [7] was 43.7 ng·h/mL, the Cmax [7] was 13.1 ng/mL and the Vd/F [7] was 120 L. It also gave a Tmax (subcutaneous, 2-hour INF 1 mg, read-out: Tmax (median)) of 2.25 h, an AUC(0-inf) [8] of 141 ng·h/mL and an AUC(0-t) [8] of 141 ng·h/mL. For the same compound, the Cmax [8] was 39.4 ng/mL, the Vd/F [8] was 150 L and the Tmax (subcutaneous, 2-hour INF 3 mg, read-out: Tmax (median)) was 2.25 h. The AUC(0-inf) [9] was 318 ng·h/mL, the AUC(0-t) [9] was 318 ng·h/mL and the Cmax [9] was 82.5 ng/mL. The Vd/F [9] was 141 L, the Tmax (subcutaneous, 2-hour INF 6 mg, read-out: Tmax (median)) was 2.25 h and the CL renal [10] was 17500 mL/min. The CL renal [2] was 19700 mL/min, the CL renal [3] was 17900 mL/min and the CL renal [4] was 15600 mL/min. For the same compound, the CL renal [5] was 17500 mL/min, the CL renal [6] was 14300 mL/min and the CL renal (subcutaneous, 2-hour INF 1 mg, geometric mean (% CV)) was 11400 mL/min. It also gave a CL renal (subcutaneous, 2-hour INF 3 mg, geometric mean (% CV)) of 13900 mL/min, a CL renal (subcutaneous, 2-hour INF 6 mg, geometric mean (% CV)) of 16900 mL/min and a dose excreted (sc, 0.003 to 6 mg, bolus and infusion, read-out: Fe, range over cohorts) of 3.09 to 5.4%. For the same compound, the dose excreted (sc, 2-hour INF 1 mg, geometric mean (% CV), read-out: Fe (urine)) was 3%, the dose excreted (sc, 2-hour INF 3 mg, geometric mean (% CV), read-out: Fe (urine)) was 3.94% and the dose excreted (sc, 2-hour INF 6 mg, geometric mean (% CV), read-out: Fe (urine)) was 5.38%. The dose excreted (single SC 0.001 mg, only 1 subject above LLOQ, read-out: Fe (urine)) was 3.47%, the dose excreted (single SC 0.003 mg, geometric mean, read-out: Fe (urine)) was 3.97% and the dose excreted (single SC 0.01 mg, geometric mean, read-out: Fe (urine)) was 3.71%. It also gave a dose excreted (single SC 0.03 mg, geometric mean, read-out: Fe (urine)) of 3.34%, a dose excreted (single SC 0.1 mg, geometric mean, read-out: Fe (urine)) of 4.08% and a dose excreted (single SC 0.3 mg, geometric mean, read-out: Fe (urine)) of 3.77%. For the same compound, the “Ae(0-t) (urine)” value [10] was 34.658 ng, the “Fe (urine)” value [10] was 3.466% and the “Ae(0-t) (urine)” value [2] was 119.177 ng. For the same compound, the “Ae(0-t) (urine)” value [3] was 370.540 ng, the “Ae(0-t) (urine)” value [4] was 1003.082 ng and the “Ae(0-t) (urine)” value [5] was 4077.298 ng. For the same compound, the “Ae(0-t) (urine)” value [6] was 11326.187 ng.
